This assay has as its target NAE1 (APP-BP1/UBA3, NEDD8-activating enzyme E1 regulatory subunit) (Homo sapiens, UniProt Q13564). The assay can be described thus: in vitro NEDD8 initiation conjugation assay. It is filed as biochemical.

Each structure is given as a SMILES string.

Chain of NAE1 (APP-BP1/UBA3, NEDD8-activating enzyme E1 regulatory subunit) (Q13564 2-534): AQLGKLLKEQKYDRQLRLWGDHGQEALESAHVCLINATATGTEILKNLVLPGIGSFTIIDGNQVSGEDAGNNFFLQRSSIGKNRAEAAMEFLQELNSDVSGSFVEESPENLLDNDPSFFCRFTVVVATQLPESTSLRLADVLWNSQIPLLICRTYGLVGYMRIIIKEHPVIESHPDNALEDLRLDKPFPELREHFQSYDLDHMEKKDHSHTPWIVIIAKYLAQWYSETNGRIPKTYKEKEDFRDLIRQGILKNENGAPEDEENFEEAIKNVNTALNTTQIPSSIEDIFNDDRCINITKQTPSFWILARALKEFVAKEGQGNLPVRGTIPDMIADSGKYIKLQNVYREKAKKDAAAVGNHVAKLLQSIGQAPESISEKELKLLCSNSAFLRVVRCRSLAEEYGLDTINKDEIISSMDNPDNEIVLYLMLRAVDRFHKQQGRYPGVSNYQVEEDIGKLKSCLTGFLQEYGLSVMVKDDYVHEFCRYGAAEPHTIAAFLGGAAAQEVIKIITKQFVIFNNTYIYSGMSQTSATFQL
Chain of NAE1 (APP-BP1/UBA3, NEDD8-activating enzyme E1 regulatory subunit) (Q8TBC4 2-463 partner): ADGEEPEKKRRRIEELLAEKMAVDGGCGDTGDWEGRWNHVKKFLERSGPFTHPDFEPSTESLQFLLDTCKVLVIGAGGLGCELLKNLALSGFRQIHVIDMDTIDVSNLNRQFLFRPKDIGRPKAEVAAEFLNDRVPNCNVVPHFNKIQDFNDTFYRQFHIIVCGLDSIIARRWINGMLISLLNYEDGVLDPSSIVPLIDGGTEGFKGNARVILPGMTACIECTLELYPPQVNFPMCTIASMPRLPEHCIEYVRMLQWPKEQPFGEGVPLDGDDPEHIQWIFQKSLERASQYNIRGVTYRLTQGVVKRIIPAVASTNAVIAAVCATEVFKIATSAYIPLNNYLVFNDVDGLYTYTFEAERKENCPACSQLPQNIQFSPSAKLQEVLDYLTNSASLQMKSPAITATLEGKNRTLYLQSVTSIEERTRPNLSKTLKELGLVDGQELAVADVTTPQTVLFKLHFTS
Chain of NAE1 (APP-BP1/UBA3, NEDD8-activating enzyme E1 regulatory subunit) (P61081 whole entry partner): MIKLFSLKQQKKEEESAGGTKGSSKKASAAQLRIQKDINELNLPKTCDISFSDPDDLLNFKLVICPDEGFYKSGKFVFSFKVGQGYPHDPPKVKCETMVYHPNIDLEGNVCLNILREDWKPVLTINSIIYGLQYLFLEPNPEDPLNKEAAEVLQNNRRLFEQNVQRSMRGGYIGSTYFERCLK
Chain of NAE1 (APP-BP1/UBA3, NEDD8-activating enzyme E1 regulatory subunit) (Q15843 1-76 partner): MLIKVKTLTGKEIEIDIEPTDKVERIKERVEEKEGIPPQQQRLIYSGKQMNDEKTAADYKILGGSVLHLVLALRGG

On to `CC(C)=CCc1c(O)c(CC=C(C)C)c2oc3c(O)ccc(O)c3c(=O)c2c1O` [Gartanin], for which the IC50 is about 10.3 µM.

In general, IC50 refers to the concentration at which inhibition is half-maximal. Lower therefore signals inhibition by little substance.

The values are drawn from paper PMC6946862 (Molecular carcinogenesis, 2019).
